From patent publication US12643881B2, “Bicyclic amine CDK12 inhibitors” (Incyte Corporation, priority 2021, dated 2026)

Legend:
[1] = target: T1, CDK12 complexed with Cyclin K (Homo sapiens, UniProt Q9NYV4); assay: CDK Enzymatic Assays (HTRF, LANCE Ultra kinase assay), Example A1; format: biochemical; conditions: enzyme pre-incubated with compounds for 60 minutes prior to addition of ATP (1 mM final) and Ulight-peptide; reaction 60-90 minutes at room temperature
T1 construct: GST (N)
Method in brief: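 N-terminal GST-tagged human CDK12 co-expressed with full-length Cyclin K (baculovirus), pre-incubated with compound 60 min, then 1 mM ATP and 50 nM ULight-4E-BP1 peptide added in HEPES pH 7.5 buffer; 60-90 min at room temperature. EDTA/Eu-antibody stop, HTRF 665/620 ratio normalized to controls; IC50 from 3- or 4-parameter fit.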

[2] = target: T1, CDK12 complexed with Cyclin K; assay: Alternative CDK Enzymatic Assays (HTRF, pre-incubation with compounds and 1 mM ATP), Example A2; format: biochemical; conditions: enzyme pre-incubated with compounds and 1 mM ATP for 60 minutes; reaction 120 minutes at 25° C.
Excerpt: Example A2. Alternative CDK Enzymatic Assays
The following activity of the CDK enzymes in complex with their respective cyclins we assayed: CDK1 complexed with Cyclin B1; CDK2 complexed with Cyclin E1; CDK4 complexed with Cyclin D1; CDK6 complexed with Cyclin D1; CDK6 complexed with Cyclin D3; CDK9 complexed with Cyclin T1; CDK7 complexed with Cyclin H/MAT1; CDK2 complexed with Cyclin A2; CDK5 complexed with p35; CDK12 complexed with Cyclin K; CDK13 complexed with Cyclin K. These in vitro enzyme activity are assayed using homogeneous time-resolved energy transfer (HTRF), which measures phosphorylation of a peptide substrate. The LANCER Ultra kinase assay (PerkinElmer) uses a ULight™-labeled EIF4E-binding protein 1 (THR37/46) peptide (DYSTTPGGTLFSTTPGTRI (SEQ ID NO: 1)) substrate and a Europium-labeled anti-phospho-4E-BP1 antibody (CDK2, CDK1, CDK4, CDK6, CDK9, CDK12, CDK13) or ULight™-labeled Myelin Basic Protein peptide (VTPRTPPP (SEQ ID NO: 2)) substrate and a Europium-labeled anti-phospho-MBP antibody (CDK7). Each CDK enzyme activity assays utilized human CDK co-expressed as N-terminal GST-tagged protein with its full length cyclin partner using a baculovirus expression system.
Enzyme was pre-incubated with compounds and 1 mM ATP for 60 minutes (CDK 1, 2, 4, 6, 9, 7, 12, 13) prior to the addition of ATP and Ulight-peptide (1 mM and 50 nM final, respectively), in assay buffer containing 50 mM HEPES pH 7.5, 1 mM EGTA, 10 mM MgCl2, 2 mM DTT, 0.05 mg/mL BSA, and 0.01% Tween 20. The reaction was then incubated for 120 minutes at 25° C. incubator. The reactions were stopped by the addition of EDTA and Europium labeled antibody, for a final concentration of 15 mM and 0.5-1.5 nM, respectively. HTRF signals were read after 15-120 minutes. A ratio of fluorescence transferred to the labeled substrate (665 nm) relative to fluorescence of the Europium donor (620 nm) represents the extent of phosphorylation. Ratios for treated wells were normalized to DMSO only (100% activity) and no enzyme (0% activity) controls. Normalized data was analyzed using a three or four parameter dose response curve to determine IC50 for each compound and are shown in Table B. Control reference inhibitors were included on each plate.

T1 sequence (Q9NYV4 whole entry): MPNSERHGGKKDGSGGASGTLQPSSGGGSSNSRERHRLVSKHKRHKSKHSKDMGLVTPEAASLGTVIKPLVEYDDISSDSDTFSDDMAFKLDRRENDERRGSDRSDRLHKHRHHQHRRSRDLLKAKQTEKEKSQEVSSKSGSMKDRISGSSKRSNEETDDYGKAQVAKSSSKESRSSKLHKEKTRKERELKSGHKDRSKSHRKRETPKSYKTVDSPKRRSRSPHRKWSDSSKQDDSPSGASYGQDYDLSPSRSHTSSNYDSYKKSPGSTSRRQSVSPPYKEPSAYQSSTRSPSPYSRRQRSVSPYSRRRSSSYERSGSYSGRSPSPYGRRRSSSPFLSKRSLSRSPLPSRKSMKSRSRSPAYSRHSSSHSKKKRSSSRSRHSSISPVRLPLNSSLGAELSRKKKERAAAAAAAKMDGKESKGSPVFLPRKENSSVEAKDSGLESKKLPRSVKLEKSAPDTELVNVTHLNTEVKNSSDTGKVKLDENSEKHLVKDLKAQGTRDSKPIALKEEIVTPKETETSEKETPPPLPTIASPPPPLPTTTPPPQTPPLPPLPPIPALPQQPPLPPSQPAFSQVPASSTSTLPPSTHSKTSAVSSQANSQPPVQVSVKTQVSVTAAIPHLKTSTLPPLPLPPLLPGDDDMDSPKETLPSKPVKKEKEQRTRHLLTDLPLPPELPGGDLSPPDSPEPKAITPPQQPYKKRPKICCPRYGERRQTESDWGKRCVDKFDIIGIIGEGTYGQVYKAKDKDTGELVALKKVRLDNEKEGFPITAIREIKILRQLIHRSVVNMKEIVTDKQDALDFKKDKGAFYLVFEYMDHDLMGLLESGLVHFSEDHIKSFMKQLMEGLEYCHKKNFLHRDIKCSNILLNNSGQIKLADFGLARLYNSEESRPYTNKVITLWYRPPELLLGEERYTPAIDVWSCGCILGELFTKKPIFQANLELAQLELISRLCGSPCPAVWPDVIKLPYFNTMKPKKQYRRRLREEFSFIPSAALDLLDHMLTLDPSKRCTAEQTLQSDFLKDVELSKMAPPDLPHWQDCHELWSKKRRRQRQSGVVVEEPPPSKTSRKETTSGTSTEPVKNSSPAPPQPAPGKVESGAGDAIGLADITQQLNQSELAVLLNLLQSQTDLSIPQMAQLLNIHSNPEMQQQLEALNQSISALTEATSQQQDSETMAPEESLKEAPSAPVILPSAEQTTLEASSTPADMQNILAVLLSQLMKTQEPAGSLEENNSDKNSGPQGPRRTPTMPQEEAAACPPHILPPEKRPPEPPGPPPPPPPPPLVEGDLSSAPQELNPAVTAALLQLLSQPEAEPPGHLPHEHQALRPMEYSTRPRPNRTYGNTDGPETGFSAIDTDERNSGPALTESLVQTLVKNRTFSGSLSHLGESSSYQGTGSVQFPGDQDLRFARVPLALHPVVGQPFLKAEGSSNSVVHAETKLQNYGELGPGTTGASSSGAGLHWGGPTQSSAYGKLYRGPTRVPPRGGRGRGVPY
T1 sequence (O75909 whole entry partner): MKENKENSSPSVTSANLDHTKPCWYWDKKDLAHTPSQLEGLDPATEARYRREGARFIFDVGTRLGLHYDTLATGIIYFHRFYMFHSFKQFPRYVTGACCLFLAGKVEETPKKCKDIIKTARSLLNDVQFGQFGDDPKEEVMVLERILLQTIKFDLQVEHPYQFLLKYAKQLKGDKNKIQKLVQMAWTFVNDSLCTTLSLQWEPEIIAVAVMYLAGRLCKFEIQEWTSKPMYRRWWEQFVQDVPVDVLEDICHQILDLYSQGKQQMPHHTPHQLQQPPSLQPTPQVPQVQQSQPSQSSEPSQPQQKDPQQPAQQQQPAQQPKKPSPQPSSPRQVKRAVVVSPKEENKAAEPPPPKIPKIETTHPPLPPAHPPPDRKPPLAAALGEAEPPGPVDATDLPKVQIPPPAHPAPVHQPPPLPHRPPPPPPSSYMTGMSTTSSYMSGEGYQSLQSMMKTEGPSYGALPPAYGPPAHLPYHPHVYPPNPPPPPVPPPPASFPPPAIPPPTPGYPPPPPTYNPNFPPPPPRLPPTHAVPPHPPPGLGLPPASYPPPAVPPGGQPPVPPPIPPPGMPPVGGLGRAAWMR

Compound	IC50 [1]	IC50 [2]
C=CC(=O)Nc1ccc2c(c1)nc(C(F)F)n2[C@H]1CCC[C@@H](Nc2ncc(C#N)cn2)C1 [Example 84, N-(1-((1S,3R)-3-((5-Cyanopyrimidin-2-yl)amino)cyclohexyl)-2-(difluoromethyl)-1H-benzo[d]imidazol-5-yl)acrylamide]	50 to 500 nM	
C=CC(=O)Nc1ccc2c(c1)C(=O)N([C@H]1CCC[C@@H](Nc3ncc(C(F)(F)F)cn3)C1)C2 [Example 85, N-(3-Oxo-2-((1S,3R)-3-((5-(trifluoromethyl)pyrimidin-2-yl)amino)cyclohexyl)isoindolin-5-yl)acrylamide]	< 50 nM	
C=CC(=O)N[C@@H]1CCN(c2nccn3c(N4C[C@H](F)C[C@@H](Nc5ncc(C(F)(F)F)cn5)C4)ncc23)C1 [Example 86, N—((R)-1-(3-((3R,5R)-3-Fluoro-5-((5-(trifluoromethyl)pyrimidin-2-yl)amino)piperidin-1-yl)imidazo[1,5-a]pyrazin-8-yl)pyrrolidin-3-yl)acrylamide]		50 to 500 nM
C=CC(=O)N1CCCCC1c1ccc2c(c1)nc(N1C[C@H](O)C[C@@H](Nc3ncc(C(F)(F)F)cn3)C1)n2C (stereo partly drawn) [Example 87, 1-(2-(2-((3R,5R)-3-Hydroxy-5-((5-(trifluoromethyl)pyrimidin-2-yl)amino)piperidin-1-yl)-1-methyl-1H-benzo[d]imidazol-5-yl)piperidin-1-yl)prop-2-en-1-one]		50 to 500 nM
C=CC(=O)Nc1ccc2c(c1)nc(N1C[C@H](O)C[C@@H](Nc3ncc(C(F)(F)F)cn3)C1)n2C [Example 88, N-(2-((3R,5R)-3-Hydroxy-5-((5-(trifluoromethyl)pyrimidin-2-yl)amino)piperidin-1-yl)-1-methyl-1H-benzo[d]imidazol-5-yl)acrylamide]	< 50 nM	
C=CC(=O)Nc1ccc2c(c1)nc(N1C[C@H](F)C[C@@H](Nc3ncc(C#N)cn3)C1)n2C [Example 89, N-(2-((3R,5R)-3-((5-Cyanopyrimidin-2-yl)amino)-5-fluoropiperidin-1-yl)-1-methyl-1H-benzo[d]imidazol-5-yl)acrylamide]	< 50 nM	
C=CC(=O)Nc1ccc2c(c1)nc(N1CC[C@@H](F)[C@@H](Nc3ncc(C(F)(F)F)cn3)C1)n2C [Example 90, N-(2-((3S,4R)-4-Fluoro-3-((5-(trifluoromethyl)pyrimidin-2-yl)amino)piperidin-1-yl)-1-methyl-1H-benzo[d]imidazol-5-yl)acrylamide]	< 50 nM	
C=CC(=O)Nc1ccc2c(c1)nc(N1CC[C@H](F)[C@@H](Nc3ncc(C(F)(F)F)cn3)C1)n2C [Example 91, N-(2-((3S,4S)-4-Fluoro-3-((5-(trifluoromethyl)pyrimidin-2-yl)amino)piperidin-1-yl)-1-methyl-1H-benzo[d]imidazol-5-yl)acrylamide]	< 50 nM	
C=CC(=O)Nc1ccc2c(c1)nc(N1CCC(F)(F)[C@@H](Nc3ncc(C(F)(F)F)cn3)C1)n2C [Example 92, (S)—N-(2-(4,4-Difluoro-3-((5-(trifluoromethyl)pyrimidin-2-yl)amino)piperidin-1-yl)-1-methyl-1H-benzo[d]imidazol-5-yl)acrylamide]	< 50 nM	
C=CC(=O)Nc1ccc2c(c1)nc(N1C[C@H](F)C[C@@H](Nc3ncc(C(F)(F)F)cn3)C1)n2C [Example 93, N-(2-((3R,5R)-3-Fluoro-5-((5-(trifluoromethyl)pyrimidin-2-yl)amino)piperidin-1-yl)-1-methyl-1H-benzo[d]imidazol-5-yl)acrylamide]	< 50 nM	
C=CC(=O)Nc1cc2nc(N3C[C@H](F)C[C@@H](Nc4ncc(C(F)(F)F)cn4)C3)n(C)c2cc1C1CC1 [Example 95, N-(6-Cyclopropyl-2-((3R,5R)-3-fluoro-5-((5-(trifluoromethyl)pyrimidin-2-yl)amino)piperidin-1-yl)-1-methyl-1H-benzo[d]imidazol-5-yl)acrylamide]	< 50 nM	
C=CC(=O)Nc1cc2nc(N3C[C@H](F)C[C@@H](Nc4ncc(C#N)cn4)C3)n(C)c2cc1C [Example 96, N-(2-((3R,5R)-3-((5-cyanopyrimidin-2-yl)amino)-5-fluoropiperidin-1-yl)-1,6-dimethyl-1H-benzo[d]imidazol-5-yl)acrylamide]		50 to 500 nM
C=CC(=O)Nc1cc2nc(N3CCC(F)(F)[C@@H](Nc4ncc(C(F)(F)F)cn4)C3)n(C)c2cc1C [Example 97, (S)—N-(2-(4,4-Difluoro-3-((5-(trifluoromethyl)pyrimidin-2-yl)amino)piperidin-1-yl)-1,6-dimethyl-1H-benzo[d]imidazol-5-yl)acrylamide]	< 50 nM	
C=CC(=O)Nc1cc2nc(N3CC[C@@H](F)[C@@H](Nc4ncc(C(F)(F)F)cn4)C3)n(C)c2cc1C [Example 98, N-(2-((3S,4R)-4-Fluoro-3-((5-(trifluoromethyl)pyrimidin-2-yl)amino)piperidin-1-yl)-1,6-dimethyl-1H-benzo[d]imidazol-5-yl)acrylamide]	< 50 nM	
C=CC(=O)Nc1cc2nc(N3CC[C@H](F)[C@@H](Nc4ncc(C(F)(F)F)cn4)C3)n(C)c2cc1C [Example 99, N-(2-((3S,4S)-4-Fluoro-3-((5-(trifluoromethyl)pyrimidin-2-yl)amino)piperidin-1-yl)-1,6-dimethyl-1H-benzo[d]imidazol-5-yl)acrylamide]	< 50 nM	
C=CC(=O)Nc1cc2nc(N3C[C@H](F)C[C@@H](Nc4ncc(C(F)(F)F)cn4)C3)n(C)c2cc1C [Example 100, N-(2-((3R,5R)-3-fluoro-5-((5-(trifluoromethyl)pyrimidin-2-yl)amino)piperidin-1-yl)-1,6-dimethyl-1H-benzo[d]imidazol-5-yl)acrylamide]		< 50 nM
C=CC(=O)Nc1cc2nc(N3C[C@H](F)C[C@@H](Nc4ncc(C(F)(F)F)cn4)C3)n(C)c2cc1C(C)C [Example 101, N-(2-((3R,5R)-3-Fluoro-5-((5-(trifluoromethyl)pyrimidin-2-yl)amino)piperidin-1-yl)-6-isopropyl-1-methyl-1H-benzo[d]imidazol-5-yl)acrylamide]	< 50 nM	
C=CC(=O)Nc1cc2nc(N3CCC[C@@H](Nc4ncc(C(F)(F)F)cn4)C3)n(C)c2cc1C [Example 102, (R)—N-(1,6-Dimethyl-2-(3-((5-(trifluoromethyl)pyrimidin-2-yl)amino)piperidin-1-yl)-1H-benzo[d]imidazol-5-yl)acrylamide]		< 50 nM
C=CC(=O)Nc1c(Br)cc2c(nc(N3CCC[C@@H](Nc4ncc(C(F)(F)F)cn4)C3)n2C)c1C [Example 103, (R)—N-(6-Bromo-1,4-dimethyl-2-(3-((5-(trifluoromethyl)pyrimidin-2-yl)amino)piperidin-1-yl)-1H-benzo[d]imidazol-5-yl)acrylamide]	< 50 nM	
C=CC(=O)N1[C@H](C)CN(c2nccn3c(N4C[C@H](F)C[C@@H](Nc5ncc(C(F)(F)F)cn5)C4)ncc23)C[C@@H]1C [Example 104, 1-((2S,6R)-4-(3-((3R,5R)-3-Fluoro-5-((5-(trifluoromethyl)pyrimidin-2-yl)amino)piperidin-1-yl)imidazo[1,5-a]pyrazin-8-yl)-2,6-dimethylpiperazin-1-yl)prop-2-en-1-one]		50 to 500 nM
C=CC(=O)N1CCC12CN(c1nccn3c(N4C[C@H](F)C[C@@H](Nc5ncc(C(F)(F)F)cn5)C4)ncc13)C2 [Example 105, 1-(6-(3-((3R,5R)-3-Fluoro-5-((5-(trifluoromethyl)pyrimidin-2-yl)amino)piperidin-1-yl)imidazo[1,5-a]pyrazin-8-yl)-1,6-diazaspiro[3.3]heptan-1-yl)prop-2-en-1-one]		< 50 nM
CC#CC(=O)N1C[C@@H]2C[C@H]1CN2c1nccn2c(N3C[C@H](F)C[C@@H](Nc4ncc(C(F)(F)F)cn4)C3)ncc12 [Example 106, 1-((1S,4S)-5-(3-((3R,5R)-3-Fluoro-5-((5-(trifluoromethyl)pyrimidin-2-yl)amino)piperidin-1-yl)imidazo[1,5-a]pyrazin-8-yl)-2,5-diazabicyclo[2.2.1]heptan-2-yl)but-2-yn-1-one]		50 to 500 nM
C=CC(=O)N1C2CCC1CN(c1nccn3c(N4CCC[C@@H](Nc5ncc(C(F)(F)F)cn5)C4)ncc13)C2 [Example 109, 1-(3-(3-((R)-3-((5-(Trifluoromethyl)pyrimidin-2-yl)amino)piperidin-1-yl)imidazo[1,5-a]pyrazin-8-yl)-3,8-diazabicyclo[3.2.1]octan-8-yl)prop-2-en-1-one]	< 50 nM	
